The target of assay [1] is T1, human enzyme NAMPT (full length) (Homo sapiens, UniProt P43490).
T1 construct: human enzyme NAMPT (full length)
In words: NMN fluorescence biochemical assay (stimulation of NMN synthesis by NAMPT). As to conditions: for pEC50: concentration giving half-maximal activation, read-out: Enzymatic EC50; for Enzymatic Emax: fold change of maximal activation compared to DMSO. An outline of the steps:
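Full-length human NAMPT (100 nM) was preincubated 15 min at 37 °C with compound in 50 mM Tris-HCl pH 7.5, 10 mM MgCl2, 2 mM DTT, then reacted 1 h at 37 °C with 50 μM NAM, 100 μM PRPP, 4 mM ATP (stated solution concentrations). NMN was derivatised with acetophenone/KOH then formic acid and read at Ex/Em 382/445 nm; EC50 and Emax (fold over DMSO) reported.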

The test system of assay [2] is endogenous NAMPT in U2OS cells. In words: Cellular NAD+ modulation assay (NAD/NADH-Glo, U2OS cells). It counts as cell-based. The note with it: Homo sapiens; for maximal fold induction: read-out: Cellular Emax. An outline of the steps:
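Endogenous NAMPT stimulation in U2OS cells treated with compound dilution series for 24 h at 37 °C. Cells lysed with DTAB base, acid-treated 15 min at 60 °C, neutralized, NAD+ read by NAD/NADH-Glo luminescence after 40 min at room temperature. EC50 and Emax (fold over DMSO) derived.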

Where [3] appears, read: NMN fluorescence assay, purified human NAMPT 100 nM.
The mark [4] stands for this setting: 24 hours incubation, cellular NAD+.
[5] abbreviates: NMN synthesis by purified human NAMPT (100 nM).
Setting [6] is: 24 hours incubation with compound.

pEC50: −log10 of the molar value. Where two headings read alike, the source gives them in different places.

A word on the pEC50: it is −log10 of the EC50, conventionally taken in molar units.

T1 sequence (P43490 whole entry): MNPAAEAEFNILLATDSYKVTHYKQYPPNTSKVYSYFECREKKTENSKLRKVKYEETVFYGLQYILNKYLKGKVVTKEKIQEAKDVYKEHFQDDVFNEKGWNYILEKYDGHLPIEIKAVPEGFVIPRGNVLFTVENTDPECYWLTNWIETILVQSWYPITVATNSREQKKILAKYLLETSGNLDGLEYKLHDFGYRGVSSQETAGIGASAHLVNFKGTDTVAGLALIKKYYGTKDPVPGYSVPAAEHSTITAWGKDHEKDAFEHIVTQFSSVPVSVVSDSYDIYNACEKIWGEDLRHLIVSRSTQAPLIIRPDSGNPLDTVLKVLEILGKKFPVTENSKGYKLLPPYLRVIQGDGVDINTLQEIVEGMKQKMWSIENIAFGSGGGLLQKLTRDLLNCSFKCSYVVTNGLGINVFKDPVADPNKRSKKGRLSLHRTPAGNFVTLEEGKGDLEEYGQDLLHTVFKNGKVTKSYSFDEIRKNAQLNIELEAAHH

In the case of `Cn1ncc(Cl)c1CC1c2ccccc2C(C)(C)N1Cc1cnc(O)s1` (centres unmarked) [Compound 614, 5-((3-((4-chloro-1-methyl-1H-pyrazol-5-yl)methyl)-1,1-dimethylisoindolin-2-yl)methyl)thiazol-2-ol], the pEC50 in assay [1] (setting [3]) was 5.30 to 6.30; in assay [2] (setting [4]), 4.30 to 5.30. In assay [1], the “Enzymatic Emax” value was “B (3≥B>2)”. For the same compound, in assay [2] (setting [4]), the maximal fold induction is ≤ 1.2.

`CC1c2cc(CN3CCC3)ccc2C(=O)N1Cc1ccc2[nH]c(=O)oc2c1` (single isomer, unassigned) [Compound 274]: the pEC50 in assay [1] (setting [5]) was ≤ 5.30; in assay [2] (setting [6]), 4.30 to 5.30. Also, the “Enzymatic Emax” value in assay [1] is on record as “B (3≥B>2)”. Besides, in assay [2] (setting [6]), the maximal fold induction was in the range of 1.2 to 1.5.

Consider `O=C1c2ccccc2C(Cc2nn(C3CNC3)cc2Cl)N1Cc1ccc2[nH]nnc2c1` (centres unmarked) [Compound 413, 2-((1H-benzo[d][1,2,3]triazol-5-yl)methyl)-3-((1-(azetidin-3-yl)-4-chloro-1H-pyrazol-3-yl)methyl)isoindolin-1-one], for which the pEC50 in assay [1] (setting [3]) was > 6.30. Moreover, the “Enzymatic Emax” value in assay [1] is reported as “B (3≥B>2)”. Further, in assay [2] (setting [4]), the pEC50 is 5.30 to 6.30 and the maximal fold induction was > 1.5.

As to `CC1NC(=O)OC12CC(CN1C(=O)c3ccccc3C1Cc1ncccc1Br)C2` (centres unmarked) [Compound 395, 2-((1-((3-bromopyridin-2-yl)methyl)-3-oxoisoindolin-2-yl)methyl)-8-methyl-5-oxa-7-azaspiro[3.4]octan-6-one], the pEC50 in assay [1] (setting [3]) and in assay [2] (setting [4]) was 5.30 to 6.30 in each case. Besides, the “Enzymatic Emax” value in assay [1] is given as “C (2≥C)”. Further, in assay [2] (setting [4]), the maximal fold induction was > 1.5.

For `O=C1c2ccc(N3CCCC3)cc2CN1Cc1ccc(O)cc1` [Compound 298, 2-(4-hydroxybenzyl)-5-(pyrrolidin-1-yl)isoindolin-1-one], the pEC50 in assay [1] (setting [5]) is 5.30 to 6.30. Also, the “Enzymatic Emax” value in assay [1] was “C (2≥C)”. Moreover, in assay [2] (setting [6]), the pEC50 was 5.30 to 6.30 and the maximal fold induction lay within 1.2 to 1.5.

As to `O=C1c2ccccc2C(Cc2nccs2)N1Cc1ccc2[nH]c(=O)oc2c1` (centres unmarked) [Compound 140, 6-((1-oxo-3-(thiazol-2-ylmethyl)isoindolin-2-yl)methyl) benzo[d]oxazol-2(3H)-one], the pEC50 in assay [1] (setting [5]) is ≤ 5.30. Also, the “Enzymatic Emax” value in assay [1] is “A (A>3)”. In assay [2] (setting [6]), the pEC50 is 5.30 to 6.30 and the maximal fold induction was > 1.5.

With `COc1ccc2c(c1)C(=O)N(Cc1ccc3[nH]nnc3c1)C2Cc1c(Cl)cnn1C` (centres unmarked) [Compound 414, 2-((1H-benzo[d][1,2,3]triazol-5-yl)methyl)-3-((4-chloro-1-methyl-1H-pyrazol-5-yl)methyl)-6-methoxyisoindolin-1-one], the negative-log EC50 (pEC50) was 5.30 to 6.30 in assay [1] (setting [3]) and > 6.30 in assay [2] (setting [4]). Moreover, the “Enzymatic Emax” value in assay [1] is recorded as “A (A>3)”. The maximal fold induction in assay [2] (setting [4]) was > 1.5.

For the compound `Cc1ccc2c(c1)C(=O)N(Cc1ccc3[nH]nnc3c1)C2=O` [Compound 37, 2-((1H-benzo[d][1,2,3]triazol-5-yl)methyl)-5-methylisoindoline-1,3-dione], the pEC50 in assay [1] (setting [5]) is ≤ 5.30. Moreover, the “Enzymatic Emax” value in assay [1] is “A (A>3)”. Further, in assay [2] (setting [6]), the pEC50 was 5.30 to 6.30 and the maximal fold induction is ≤ 1.2.

`Cn1ncc(Cl)c1CC1c2ccccc2C(=S)N1CC1CC2(CNC(=O)O2)C1` (centres unmarked) [Compound 482, 2-((1-((4-chloro-1-methyl-1H-pyrazol-5-yl)methyl)-3-thioxoisoindolin-2-yl)methyl)-5-oxa-7-azaspiro[3.4]octan-6-one]: the pEC50 in assay [1] (setting [3]) was > 6.30. Also, the “Enzymatic Emax” value in assay [1] is “B (3≥B>2)”. Further, in assay [2] (setting [4]), the pEC50 was > 6.30 and the maximal fold induction was > 1.5.

On to `Cc1cccnc1C[C@H]1c2ccccc2C(=O)N1Cc1ccc2[nH]c(=O)oc2c1` [Compound 178, (S)-6-((1-((3-methylpyridin-2-yl)methyl)-3-oxoisoindolin-2-yl)methyl)benzo[d]oxazol-2(3H)-one], for which the pEC50 in assay [1] (setting [5]) is > 6.30. In addition, the “Enzymatic Emax” value in assay [1] is recorded as “A (A>3)”. For the same compound, in assay [2] (setting [6]), the pEC50 is > 6.30 and the maximal fold induction is > 1.5.

Regarding `CNC(=O)Nc1ccc(CN2Cc3ccccc3C2=O)cc1` [Compound 105, 1-methyl-3-(4-((1-oxoisoindolin-2-yl)methyl)phenyl)urea], the pEC50 in assay [1] (setting [5]) was ≤ 5.30; in assay [2] (setting [6]), 5.30 to 6.30. Further, in assay [1], the “Enzymatic Emax” value is “B (3≥B>2)”. The maximal fold induction in assay [2] (setting [6]) is > 1.5.

`Cn1ncc(Cl)c1CC1c2cc(F)ccc2C(=O)N1CC1CC2(CNC(=O)O2)C1` (centres unmarked) [Compound 486, 2-((3-((4-chloro-1-methyl-1H-pyrazol-5-yl)methyl)-5-fluoro-1-oxoisoindolin-2-yl)methyl)-5-oxa-7-azaspiro[3.4]octan-6-one]: the pEC50 in assay [1] (setting [3]) is 5.30 to 6.30. In assay [1], the “Enzymatic Emax” value was “B (3≥B>2)”. In addition, in assay [2] (setting [4]), the negative-log EC50 (pEC50) is > 6.30 and the maximal fold induction was > 1.5.

As to `Cn1ncc(Cl)c1CC1c2ccccc2C(=O)N1CC1CC2(CNC(=O)O2)C1` (centres unmarked) [Compound 307, 2-((1-((4-chloro-1-methyl-1H-pyrazol-5-yl)methyl)-3-oxoisoindolin-2-yl)methyl)-5-oxa-7-azaspiro[3.4]octan-6-one], the values for the pEC50 in assay [1] (setting [5]) and in assay [2] (setting [6]) were 5.30 to 6.30 and > 6.30, respectively. Further, in assay [1], the “Enzymatic Emax” value is “B (3≥B>2)”. In addition, in assay [2] (setting [6]), the maximal fold induction was > 1.5.

On to `O=C1c2ccccc2C(=O)N1Cc1ccc(O)cc1` [Compound 11, 2-(4-hydroxybenzyl)isoindoline-1,3-dione], for which, in assay [1] (setting [5]), the pEC50 was ≤ 5.30. In assay [1], the “Enzymatic Emax” value is “B (3≥B>2)”. Besides, in assay [2] (setting [6]), the pEC50 is 4.30 to 5.30 and the maximal fold induction was in the range of 1.2 to 1.5.

`Cn1ncc(Cl)c1CC1c2ccccc2C(=O)N1C[C@H]1C[C@@]2(CNC(=O)O2)C1` (some centres unmarked) [Compound 483, (2r,4r)-2-((1-((4-chloro-1-methyl-1H-pyrazol-5-yl)methyl)-3-oxoisoindolin-2-yl)methyl)-5-oxa-7-azaspiro[3.4]octan-6-one]: the pEC50 in assay [1] (setting [3]) was 5.30 to 6.30. Also, in assay [1], the “Enzymatic Emax” value is recorded as “B (3≥B>2)”. In addition, in assay [2] (setting [4]), the pEC50 was > 6.30 and the maximal fold induction is 1.2 to 1.5.

In the case of `Cc1ccnc(C#N)c1CC1c2cc(C3CC3)ccc2C(=O)N1Cc1ccc2[nH]nnc2c1` (centres unmarked) [Compound 360, 3-((2-((1H-benzo[d][1,2,3]triazol-5-yl)methyl)-6-cyclopropyl-3-oxoisoindolin-1-yl)methyl)-4-methylpicolinonitrile], the pEC50 in assay [1] (setting [3]) was > 6.30. Also, the “Enzymatic Emax” value in assay [1] is “B (3≥B>2)”. For the same compound, in assay [2] (setting [4]), the pEC50 was > 6.30 and the maximal fold induction is > 1.5.

As for `Cn1ncc(Cl)c1CC1c2ccccc2C(C)(C)N1Cc1ccc2[nH]c(=O)oc2c1` (centres unmarked) [Compound 613, 6-((3-((4-chloro-1-methyl-1H-pyrazol-5-yl)methyl)-1,1-dimethylisoindolin-2-yl)methyl)benzo[d]oxazol-2(3H)-one], the pEC50 was > 6.30 in assay [1] (setting [3]) and 5.30 to 6.30 in assay [2] (setting [4]). Moreover, the “Enzymatic Emax” value in assay [1] was “A (A>3)”. Moreover, in assay [2] (setting [4]), the maximal fold induction was in the range of 1.2 to 1.5.

As to `COc1ccc(CN2C(=O)c3ccccc3C2Cc2c(C)ncnc2C#N)cn1` (centres unmarked) [Compound 595, 5-((2-((6-methoxypyridin-3-yl)methyl)-3-oxoisoindolin-1-yl)methyl)-6-methylpyrimidine-4-carbonitrile], the pEC50 in assay [1] (setting [3]) was 5.30 to 6.30. For the same compound, in assay [1], the “Enzymatic Emax” value is given as “B (3≥B>2)”. For the same compound, in assay [2] (setting [4]), the pEC50 is 5.30 to 6.30 and the maximal fold induction is > 1.5.

`NC(=O)C1CC(CN2C(=O)c3ccccc3C2Cc2ncccc2Br)C1` (centres unmarked) [Compound 404, 3-((1-((3-bromopyridin-2-yl)methyl)-3-oxoisoindolin-2-yl)methyl)cyclobutane-1-carboxamide]: the pEC50 in assay [1] (setting [3]) was > 6.30. Also, the “Enzymatic Emax” value in assay [1] is reported as “B (3≥B>2)”. Besides, in assay [2] (setting [4]), the pEC50 is > 6.30 and the maximal fold induction is > 1.5.

Regarding `N#Cc1cccc(F)c1CC1c2ccccc2C(=O)N1Cc1ccc2[nH]c(=O)oc2c1` (centres unmarked) [Compound 170, 3-fluoro-2-((3-oxo-2-((2-oxo-2,3-dihydrobenzo[d]oxazol-6-yl)methyl)isoindolin-1-yl)methyl)benzonitrile], the pEC50 in assay [1] (setting [5]) is > 6.30. Also, the “Enzymatic Emax” value in assay [1] is listed as “A (A>3)”. In assay [2] (setting [6]), the negative-log EC50 (pEC50) was > 6.30 and the maximal fold induction is > 1.5.

In the case of `CC1c2cc(Cc3ccccc3)ccc2C(=O)N1Cc1ccc2[nH]c(=O)oc2c1` (centres unmarked) [Compound 113, 6-((5-benzyl-3-methyl-1-oxoisoindolin-2-yl)methyl)benzo[d]oxazol-2(3H)-one], in assay [1] (setting [5]), the pEC50 is 5.30 to 6.30. In assay [1], the “Enzymatic Emax” value is “B (3≥B>2)”. Further, in assay [2] (setting [6]), the pEC50 is 5.30 to 6.30 and the maximal fold induction fell in the range of 1.2 to 1.5.

For the compound `O=C1c2ccccc2C(Cc2ncsc2Cl)N1Cc1ccc2[nH]nnc2c1` (centres unmarked) [Compound 418, 2-((1H-benzo[d][1,2,3]triazol-5-yl)methyl)-3-((5-chlorothiazol-4-yl)methyl)isoindolin-1-one], the pEC50 in assay [1] (setting [3]) is > 6.30. Further, the “Enzymatic Emax” value in assay [1] is “B (3≥B>2)”. Besides, in assay [2] (setting [4]), the pEC50 was > 6.30 and the maximal fold induction is > 1.5.

On to `N#Cc1cncc(C#N)c1CC1c2ccccc2C(=O)N1Cc1ccc2[nH]c(=O)oc2c1` (centres unmarked) [Compound 283, 4-((3-oxo-2-((2-oxo-2,3-dihydrobenzo[d]oxazol-6-yl)methyl)isoindolin-1-yl)methyl) pyridine-3,5-dicarbonitrile], for which the pEC50 in assay [1] (setting [5]) and in assay [2] (setting [6]) was > 6.30 each time. Also, the “Enzymatic Emax” value in assay [1] is “A (A>3)”. Also, the maximal fold induction in assay [2] (setting [6]) is 1.2 to 1.5.

The record behind these values is patent US20260078130A1, “NAMPT MODULATORS, PREPARATIONS, AND USES THEREOF” (SIRONAX LTD., priority 2022, published 2026).
